Measured values from ChEMBL document CHEMBL1129879, “Enzymatic synthesis of peptidyl amino alcohols and peptidyl amino aldehydes-serine proteinase inhibitors” (Bioorg Med Chem Lett, 1997).
Where a SMILES comes first, the peptide text is derived from it. The star is where a group is joined. Cbz = O=C(OCc1ccccc1)*

Assays:
[1] = The compound was tested for the inhibition of subtilisin 72, activity expressed as Ki; set-up: species or system Bacillus subtilis
[2] = The compound was tested for the inhibition of subtilisin 72, activity expressed as IC50; set-up: species or system Bacillus subtilis

Ki [1]	IC50 [2]	Compound
0.18 µM	0.9 µM	C[C@H](NC(=O)OCc1ccccc1)C(=O)N[C@@H](C)C(=O)N[C@H](C=O)Cc1ccccc1 (Cbz-Ala-Ala-Phe-aldehyde)
1000 µM		C[C@H](NC(=O)OCc1ccccc1)C(=O)N[C@@H](C)C(=O)N[C@H](CO)Cc1ccccc1 (HELM PEPTIDE1{[O=C(OCc1ccccc1)[*:2]].A.A.[OC[C@H](Cc1ccccc1)N[*:1]]}$$$$V2.0)
